Test results from patent publication US20160038474A1, “COMPOSITIONS AND METHODS FOR THE MODULATION OF HEMOGLOBIN (S)” (GLOBAL BLOOD THERAPEUTICS, INC., priority 2013, published 2016).
Read-outs that look alike come from different tables or passages of the source.

Columns and labels:
[1] = system: hemoglobin and human serum albumin; assay: In vitro binding to hemoglobin and human serum albumin at physiologic ratio; details: both proteins present in their respective physiologic ratio
Protocol: However, when the red blood cell compartment is considered, compound 12 unexpectedly partitions into blood to a far greater extent than compound 22 or compound 23. […] When the red blood cell/plasma ratio was measured at the peak concentration, compound 12 partitioned at a ratio of 70 to 1 into the erythrocytes attesting to its preferential partition into the compartment which contains the drug target hemoglobin. Supportive data was reported in an in vitro system measuring binding of compound 12 to hemoglobin and human serum albumin.

washed red blood cells = assay: Reverse Hemox assay (OEC), washed red blood cells; assay type: cell-based, human
Protocol: Oxygen Equilibrium Curves (OEC) of whole blood before and after treatment with different concentrations of compounds 12, 22 and 23 were performed as follows using a HEMOX analyzer (TCS Scientific, New Hope, Pa.). Blood samples from homozygous sickle cell patients were obtained though the Hemoglobinopathy Center at Children's Hospital Oakland Research Institute (CHORI) with Institutional Review Board approval. The hematocrit was adjusted to 20% using autologous plasma and the blood samples were incubated for 1 hour at 37° C. in absence or presence of compounds. 100 μl of these samples were added to 5 mL of Hemox butter (30 mM TES, 130 mM NaCl, 5 mM KCl, pH=7.4) at 37° C. and then transferred to the Hemox sample chamber. The samples were saturated with oxygen by flushing with compressed air for 10 minutes. The samples were then flushed with pure nitrogen and the respective absorbances of oxy- and deoxy-Hb are recorded as a function of the solution pO2. The oxygen equilibrium data were then fitted to the Hill Model to obtain values for p50. The deoxygenation curves for both whole blood alone (control) and whole blood in the presence of the compound were collected with the TCS software.
Reverse hemox assay was performed essentially as described in Example 2, above, using either washed red blood cells or whole blood.
Results: Table 4, below, indicates the percent change in p50 (delta p50%) for each compound tested. In the washed red blood cells (RBCs), 5-HMF, compound 5, and compound 12 (1 mM compound) gave p50 of 20, 9 and 7 mm Hg, respectively, compared to the control red blood cells (delta p50=30 mm Hg). To determine the effects of plasma proteins on compound activity. OECs were measured in whole blood from sickle cell disease patients. 5-HMF, compound 5, compound 9, and compound 12 gave p50 of 27, 18, 11 and 6 mm Hg, respectively, compared to the control blood p50 of 30 mm Hg.

red blood cells = assay: Sickling assay under hypoxia; assay type: cell-based; details: for Sickling (% sickled): [HbS] ~1 mM (20% HCT), No Cmpd 85
Protocol: For sickling experiments, red blood cells were pre-incubated with compound 12 or 5-HMF, then subjected to hypoxia (pO2 of ˜3 mmHg) in a 37° C. humidified chamber for 0.5 hr and subsequently imaged using a light microscope. The percentage of sickled cells in each image was calculated using CellVigene software.

HbS/A = target: T1, HbS/A (Homo sapiens, UniProt P68871+P69905, E7V); assay: R/T assay (relaxed-to-tense transition); assay type: biochemical; details: HbS/A 3 μM
T1 construct: A mixture of HbS/A was purified from blood obtained from homozygous sickle cell patients; from tissue; host or cells: blood of homozygous sickle cell patients
Protocol: This ability can be expressed as a “delta R” value (i.e., the change in the time-period of the R state after hemoglobin is treated with a compound, as compared to the period without treatment with the compound). Delta R is the % R to remaining after the compounds treatment compared with no treatment (e.g., if R % without treatment is 8% while with treatment with a target compound is 48% R at 30 μM, then % R is 40% for that compound.
A mixture of HbS/A was purified from blood obtained from homozygous sickle cell patients though the Hemoglobinopathy Center at Children's Hospital Oakland Research Institute (CHORI) with Institutional Review Board approval. HbS/A (at a final concentration of 3 μM) was incubated for 1 hr at 37° C. in presence or absence of compounds in […] potassium phosphate buffer, pH=7.4 and 30 μM 2,3 diphosphoglycerate (DPG) in 96 well plates in a final volume of 160 μl. Compounds were added at different concentrations (3 μM to 100 μM final concentrations). Plates were covered with a Mylar film. After incubation was completed the Mylar cover was removed and the plates were placed in a Spectrostar Nano plate reader previously heated at 37° C. Five minutes later, N2 (flow rate=20 L/min) was flowed through the spectrophotometer. Spectroscopic measurements (300 nm to 700 nm) were taken every 5 min for 2 hours. Data analysis was performed by using linear regression from the data retrieved for all wavelengths.

[2] = Rat pharmacokinetics and blood/plasma partitioning (Example 1); assay type: in vivo, Rats (Sprague-Dawley); details: for blood plasma ratio: whole blood and plasma, oral, 10 mg/kg
Protocol: This experiment was established and used in order to assess the pharmacokinetic (PK) properties of the compounds.
Sample collection and data analysis: Rats (Sprague-Dawley, male, 8-12[…] weeks old) were dosed with one of three compounds corresponding to compound 12, compound 22 or compound 23. The rats received oral (10 mg/kg) or intravenous (1 mg/kg) doses of the compound. Rats were fasted overnight before the experiments and provided with food after the 2 hour sampling time point.
Blood samples were collected at different time points. Blood was anti-coagulated by 3.2% TSC (trisodium citrate) and a portion was separated into plasma fraction by centrifugation and removal of blood cells. Plasma and lysed blood samples were anal) zed for drug concentration using LC-MS/MS. PK parameters were calculated by non compartmental analysis of the concentration-time profiles using WinNonLin software (Pharsight, Mountain View, Calif.). Apparent elimination half-life (t1/2) values were calculated as ln(2)/k. Area under the concentration-time curve (AUC) values were estimated using the linear trapezoidal method. AUClast values were calculated from the dosing time to the last measurable concentration. AUCinf values were calculated as the sum of the corresponding AUClast and the ratio of the last detectable concentration divided by k. Plasma clearance (Cl) is calculated from Dose/AUCinf. Volume of distribution at steady state (Vss) is calculated from Mean Residence Timeinf×Clss. Maximum concentration (Cmax) and time to Cmax (Tmax) was recorded as observed. The blood/plasma partitioning ratio was calculated at each experimental time point.

binding preference, hemoglobin versus human serum albumin [1]: preferentially binding to hemoglobin
R-T delta R (HbS/A; 9 μM compound): 65.45
R-T delta R (class) (HbS/A; 9 μM compound): +++ (a delta R of 50 or greater)
R-T delta R (HbS/A; 10 μM compound): 62.75
R-T delta R (class) (HbS/A; 10 μM compound): +++ (a delta R of 50 or greater)
level of compound in blood versus plasma, overall exposure ([2]; dosed orally): 55 fold
relative proportion in blood (as compared to plasma) at peak concentration (Cmax) ([2]; dosed orally): 21 fold
Vd ([2]; male, Sprague-Dawley, in vivo, oral 10 mg/kg or intravenous 1 mg/kg, read-out: Vss): 0.14 L/kg
bioavailability ([2]; male, Sprague-Dawley, in vivo, oral 10 mg/kg, intravenous 1 mg/kg): 68.8%
clearance ([2]; male, Sprague-Dawley, plasma, oral 10 mg/kg or intravenous 1 mg/kg): 0.11 mL/min/kg
blood plasma ratio ([2]; male, Sprague-Dawley, read-out: Blood/plasma (Ratio of exposure AUCINF)): 55
blood plasma ratio ([2]; male, Sprague-Dawley, read-out: Blood/plasma (Ratio of peak concentration)): 21
red blood cell/plasma ratio at the peak concentration ([2]; ratio to 1 into the erythrocytes): 70
Compound: CC(C)n1nccc1-c1ncccc1COc1cccc(O)c1C=O [Compound 12, 2-hydroxy-6-[[2-(2-propan-2-ylpyrazol-3-yl)pyridin-3-yl]methoxy] benzaldehyde]
Washed RBC OEC (delta p50%) (washed red blood cells; [Hb] 1 mM, [cmp] 1 mM): 76%
p50 (washed red blood cells; washed RBCs, 1 mM compound, control 30 mm Hg): 7 mm Hg
Sickling (% sickled) (red blood cells; [Cmpd] 1 mM): 41%
Sickling (% sickled) (red blood cells; [Cmpd] 2 mM): 33%
Sickling (% sickled) (red blood cells; [Cmpd] 5 mM): 28%
sickling of RBCs (in words) (red blood cells; hypoxia 0.5 hr, 37° C.): prevented sickling of RBCs under hypoxia
